For one molecule, IC50 results are on record in paper PMC9320206, “Sanguinarine, identified as a natural alkaloid LSD1 inhibitor, suppresses lung cancer cell growth and migration” (Iranian Journal of Basic Medical Sciences, 2022).

In the assay the target is T1, Lysine-specific demethylase 1 (LSD1) (Homo sapiens, UniProt O60341).
T1 construct: gene KDM1A; recombinant LSD1 (pET-28b-LSD1, expressed in BL21(DE3))
The experiment in a line: HRP/Amplex Red fluorescence demethylase assay with H3K4me2 peptide; no-enzyme counter-screen; […] dilution reversibility assay. The class given is biochemical.

Structures are written as SMILES.

The molecule `C[n+]1cc2c3c(ccc2c2ccc4cc5c(cc4c21)OCO5)OCO3` [sanguinarine] had an IC50 of 400 nM.

As a reminder, the IC50 is the concentration that inhibits the measured activity by half. High values mean a need for much substance, low ones inhibition by little substance.
